Assay [1] concerns the target Acetylcholinesterase (Electrophorus electricus) (UniProt O42275). The assay can be described thus: Inhibition of Electrophorus electricus AChE at 100 uM.
Assay [2] has the same target. Nature of the assay: (§1) Inhibition of Electrophorus electricus AChE.
For the next assay, the target named is Acetylcholinesterase (Electrophorus electricus, UniProt O42275). Described as §1.

For orientation: inhibition means the change of the read-out against control, counted positive when it falls. As a reminder, the IC50 is the concentration that inhibits the measured activity by half. Higher therefore signals a need for much substance.

Chain of Acetylcholinesterase (O42275 whole entry): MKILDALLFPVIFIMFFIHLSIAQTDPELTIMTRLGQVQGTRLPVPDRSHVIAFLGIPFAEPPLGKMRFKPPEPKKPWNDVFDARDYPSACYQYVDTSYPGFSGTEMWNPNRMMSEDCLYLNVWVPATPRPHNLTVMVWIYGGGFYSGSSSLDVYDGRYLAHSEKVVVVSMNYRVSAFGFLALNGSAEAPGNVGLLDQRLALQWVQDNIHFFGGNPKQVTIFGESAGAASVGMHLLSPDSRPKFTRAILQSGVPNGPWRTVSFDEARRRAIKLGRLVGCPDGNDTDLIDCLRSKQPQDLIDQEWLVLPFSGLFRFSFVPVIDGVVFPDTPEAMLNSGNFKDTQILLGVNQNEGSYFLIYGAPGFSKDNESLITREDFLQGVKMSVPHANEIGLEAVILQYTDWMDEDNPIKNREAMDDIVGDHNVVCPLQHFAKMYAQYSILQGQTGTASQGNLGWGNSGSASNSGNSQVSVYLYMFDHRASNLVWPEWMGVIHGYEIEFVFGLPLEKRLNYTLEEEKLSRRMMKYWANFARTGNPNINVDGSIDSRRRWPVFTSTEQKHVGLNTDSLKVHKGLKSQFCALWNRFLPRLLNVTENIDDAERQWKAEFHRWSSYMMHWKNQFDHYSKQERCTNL
Chain of Acetylcholinesterase (Electrophorus electricus) (O42275 24-633 limits assumed): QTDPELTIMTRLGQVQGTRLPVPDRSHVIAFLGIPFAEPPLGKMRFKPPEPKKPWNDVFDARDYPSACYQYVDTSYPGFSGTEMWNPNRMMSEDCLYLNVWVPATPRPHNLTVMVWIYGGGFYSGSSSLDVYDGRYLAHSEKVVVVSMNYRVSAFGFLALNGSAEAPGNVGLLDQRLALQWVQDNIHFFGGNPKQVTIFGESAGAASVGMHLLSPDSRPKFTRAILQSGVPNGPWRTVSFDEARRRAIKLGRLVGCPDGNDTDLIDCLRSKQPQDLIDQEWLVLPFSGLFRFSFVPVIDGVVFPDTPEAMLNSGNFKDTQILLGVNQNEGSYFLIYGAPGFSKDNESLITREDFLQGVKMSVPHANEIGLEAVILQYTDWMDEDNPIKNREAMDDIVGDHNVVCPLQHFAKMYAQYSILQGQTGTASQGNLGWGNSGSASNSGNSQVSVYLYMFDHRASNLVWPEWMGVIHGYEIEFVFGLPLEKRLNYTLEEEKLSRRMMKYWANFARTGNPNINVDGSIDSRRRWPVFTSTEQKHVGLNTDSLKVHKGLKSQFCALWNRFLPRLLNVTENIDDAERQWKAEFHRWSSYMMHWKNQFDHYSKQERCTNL

In assay [1], `CCCCCCCCCCCCCCC(c1cccc(OC(=O)N(C)C)c1)N1CCCCC1` (stereo not drawn) gave an inhibition of 25%. `CCCCCCCCCCCCCCC(c1cccc(OC(=O)N(C)C)c1)N(C)Cc1ccccc1` (stereo not drawn): the inhibition in assay [1] is 25%. For the compound `CCCCCCCCCCCCCCC(c1cccc(OC(=O)N(C)C)c1)N(C)C` (stereo not drawn), the inhibition entry in assay [2] is “Dose-dependent effect”. The same compound returned a 50% inhibitory concentration (IC50) against Acetylcholinesterase of 50 µM. In the case of `CCCCCCCCCCCCCCC(c1cccc(OC(=O)N(C)C)c1)N(CC)CC` (stereo not drawn), the inhibition entry in assay [2] was “Dose-dependent effect”. Further, the IC50 on Acetylcholinesterase is 251 µM. As to `CCCCCCCCCCCCCCC(c1cccc(OC(=O)N(C)C)c1)N1CCCC1` (stereo not drawn), the inhibition entry in assay [2] is “Dose-dependent effect”. The same compound registered a half-maximal inhibitory concentration (IC50) on Acetylcholinesterase of 84.3 µM.
